Laboratory results from US20240092835A1, “NOVEL PEPTIDES CAPABLE OF ALTERING NK CELL ACTIVITY” (Massachusetts Institute of Technology, priority 2022, published 2024).
Where no end group is shown, it is not given here.

How the values were obtained:
NKG2A−/NKG2C− NK cells = test: NK cell activation markers in control NKG2A-/NKG2C- NK cells incubated with peptide and K562 expressing HLA-E; format: cell-based, human
In short: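 Percent-positive cells for NK activation surface markers were measured after NK cells met peptide-treated K562 cells expressing HLA-E. A decrease in that fraction was scored as inhibition and an increase as activation; NKG2A−/NKG2C− cells served as controls.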

CD94/NKG2A = CD94/NKG2A (Homo sapiens, UniProt P26715+Q13241); test: Steady-state surface plasmon resonance of peptide-HLA-E complex with CD94/NKG2A; format: binding; details: for Binding of peptide-HLA-E complexes to CD94/NKG2A normalized to a theoretical Rmax: steady-state SPR
Procedure: Binding affinity of novel peptides linked to HLA-E was determined using surface plasmon resonance (SPR), a methodology used to study protein-protein interactions (Tables 15-19). The peptide-HLA-E complex (generated as a single chain trimer) was immobilized on the sensor chip surface and CD94/NKG2A or CD94/NKG2C were flowed over. Steady-state surface plasmon resonance experiments were performed with a Biacore T200 instrument. CD94/NKG2x in HBS-EP+ buffer was injected as analyte in a concentration range of 0.1 μM to 102.4 μM and flow rate of 10 μL/min at 25° C. Data was fit with Prism 9.4 (GraphPad Software Inc; San Diego CA) to a “one site, specific binding” model. Series S CM5 chips were coupled to neutravidin and utilized. Biotinylated pMHC was immobilized at approximately 400 RU. KD values calculated by Biacore software are reported. Rmax, fit values were calculated by Biacore software. Rmax, theoretical values were calculated using the analyte/ligand mass ratio (0.66) multiplied by the amount of ligand coupled to the chip.

Chain of CD94/NKG2A (P26715 94-233 limits assumed): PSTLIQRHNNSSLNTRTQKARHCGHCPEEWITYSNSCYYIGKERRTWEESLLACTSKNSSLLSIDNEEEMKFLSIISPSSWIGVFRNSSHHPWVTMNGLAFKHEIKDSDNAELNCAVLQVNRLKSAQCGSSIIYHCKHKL
Chain of CD94/NKG2A (Q13241 32-179 limits assumed): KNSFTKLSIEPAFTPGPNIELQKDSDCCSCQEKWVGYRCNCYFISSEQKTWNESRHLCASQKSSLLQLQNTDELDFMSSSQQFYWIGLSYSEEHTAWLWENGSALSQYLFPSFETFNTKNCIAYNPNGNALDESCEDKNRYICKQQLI

Sequence: VNPGRSLFL [human5, VNPGRSLFL]
- percentage CCL3+ NK cells (NKG2A−/NKG2C− NK cells; Trial 1): 33%
- percentage CD107+ NK cells (NKG2A−/NKG2C− NK cells; Trial 1): 26.5%
- percentage TNF+ NK cells (NKG2A−/NKG2C− NK cells; Trial 1): 4.11%
- percentage of IFNG+ NK cells (NKG2A−/NKG2C− NK cells; Trial 1): 14.6%
- percentage CCL3+ NK cells (NKG2A−/NKG2C− NK cells; Trial 2): 55.5%
- percentage CD107+ NK cells (NKG2A−/NKG2C− NK cells; Trial 2): 32.5%
- percentage TNF+ NK cells (NKG2A−/NKG2C− NK cells; Trial 2): 10.4%
- percentage of IFNG+ NK cells (NKG2A−/NKG2C− NK cells; Trial 2): 26.3%
- percentage CCL3+ NK cells (NKG2A−/NKG2C− NK cells; Trial 3): 53.4%
- percentage CD107+ NK cells (NKG2A−/NKG2C− NK cells; Trial 3): 48.1%
- percentage TNF+ NK cells (NKG2A−/NKG2C− NK cells; Trial 3): 18%
- percentage of IFNG+ NK cells (NKG2A−/NKG2C− NK cells; Trial 3): 41.4%
- percentage CCL3+ NK cells (NKG2A−/NKG2C− NK cells; Trial 4): 30.6%
- percentage CD107+ NK cells (NKG2A−/NKG2C− NK cells; Trial 4): 27.8%
- percentage TNF+ NK cells (NKG2A−/NKG2C− NK cells; Trial 4): 9.09%
- percentage of IFNG+ NK cells (NKG2A−/NKG2C− NK cells; Trial 4): 18.7%
- percentage CCL3+ NK cells (NKG2A−/NKG2C− NK cells; Trial 5): 23.5%
- percentage CD107+ NK cells (NKG2A−/NKG2C− NK cells; Trial 5): 19%
- percentage TNF+ NK cells (NKG2A−/NKG2C− NK cells; Trial 5): 6.08%
- percentage of IFNG+ NK cells (NKG2A−/NKG2C− NK cells; Trial 5): 14.6%
- percentage CCL3+ NK cells (NKG2A−/NKG2C− NK cells; Trial 6): 22%
- percentage CD107+ NK cells (NKG2A−/NKG2C− NK cells; Trial 6): 20.1%
- percentage TNF+ NK cells (NKG2A−/NKG2C− NK cells; Trial 6): 4.34%
- percentage of IFNG+ NK cells (NKG2A−/NKG2C− NK cells; Trial 6): 10.7%
- binding of peptide-HLA-E complex to CD94/NKG2A normalized to a fitted Rmax (CD94/NKG2A; CD94/NKG2A concentration 0 μM): −0.002
- binding of peptide-HLA-E complex to CD94/NKG2A normalized to a fitted Rmax (CD94/NKG2A; CD94/NKG2A concentration 0.1 μM): 0.177
- binding of peptide-HLA-E complex to CD94/NKG2A normalized to a fitted Rmax (CD94/NKG2A; CD94/NKG2A concentration 0.2 μM): 0.288
- binding of peptide-HLA-E complex to CD94/NKG2A normalized to a fitted Rmax (CD94/NKG2A; CD94/NKG2A concentration 0.4 μM): 0.434
- binding of peptide-HLA-E complex to CD94/NKG2A normalized to a fitted Rmax (CD94/NKG2A; CD94/NKG2A concentration 0.8 μM): 0.593
- binding of peptide-HLA-E complex to CD94/NKG2A normalized to a fitted Rmax (CD94/NKG2A; CD94/NKG2A concentration 1.6 μM): 0.739
- binding of peptide-HLA-E complex to CD94/NKG2A normalized to a fitted Rmax (CD94/NKG2A; CD94/NKG2A concentration 3.2 μM): 0.863
- binding of peptide-HLA-E complex to CD94/NKG2A normalized to a fitted Rmax (CD94/NKG2A; CD94/NKG2A concentration 6.4 μM): 0.955
- binding of peptide-HLA-E complex to CD94/NKG2A normalized to a fitted Rmax (CD94/NKG2A; CD94/NKG2A concentration 12.8 μM): 1.018
- binding of peptide-HLA-E complex to CD94/NKG2A normalized to a fitted Rmax (CD94/NKG2A; CD94/NKG2A concentration 25.6 μM): 1.059
- binding of peptide-HLA-E complex to CD94/NKG2A normalized to a fitted Rmax (CD94/NKG2A; CD94/NKG2A concentration 51.2 μM): 1.081
- binding of peptide-HLA-E complex to CD94/NKG2A normalized to a fitted Rmax (CD94/NKG2A; CD94/NKG2A concentration 102.4 μM): 1.105
- Binding of peptide-HLA-E complexes to CD94/NKG2A normalized to a theoretical Rmax (CD94/NKG2A; CD94/NKG2A analyte concentration 0.000 μM): −0.001
- Binding of peptide-HLA-E complexes to CD94/NKG2A normalized to a theoretical Rmax (CD94/NKG2A; CD94/NKG2A analyte concentration 0.100 μM): 0.074
- Binding of peptide-HLA-E complexes to CD94/NKG2A normalized to a theoretical Rmax (CD94/NKG2A; CD94/NKG2A analyte concentration 0.200 μM): 0.120
- Binding of peptide-HLA-E complexes to CD94/NKG2A normalized to a theoretical Rmax (CD94/NKG2A; CD94/NKG2A analyte concentration 0.400 μM): 0.181
- Binding of peptide-HLA-E complexes to CD94/NKG2A normalized to a theoretical Rmax (CD94/NKG2A; CD94/NKG2A analyte concentration 0.800 μM): 0.247
- Binding of peptide-HLA-E complexes to CD94/NKG2A normalized to a theoretical Rmax (CD94/NKG2A; CD94/NKG2A analyte concentration 1.600 μM): 0.308
- Binding of peptide-HLA-E complexes to CD94/NKG2A normalized to a theoretical Rmax (CD94/NKG2A; CD94/NKG2A analyte concentration 3.200 μM): 0.360
- Binding of peptide-HLA-E complexes to CD94/NKG2A normalized to a theoretical Rmax (CD94/NKG2A; CD94/NKG2A analyte concentration 6.400 μM): 0.398
- Binding of peptide-HLA-E complexes to CD94/NKG2A normalized to a theoretical Rmax (CD94/NKG2A; CD94/NKG2A analyte concentration 12.800 μM): 0.425
- Binding of peptide-HLA-E complexes to CD94/NKG2A normalized to a theoretical Rmax (CD94/NKG2A; CD94/NKG2A analyte concentration 25.600 μM): 0.442
- Binding of peptide-HLA-E complexes to CD94/NKG2A normalized to a theoretical Rmax (CD94/NKG2A; CD94/NKG2A analyte concentration 51.200 μM): 0.451
- Binding of peptide-HLA-E complexes to CD94/NKG2A normalized to a theoretical Rmax (CD94/NKG2A; CD94/NKG2A analyte concentration 102.400 μM): 0.461
